Two molecules from patent US12433876B2, “Septin inhibitors for treatment of cancers” (UNIVERSITY OF ROCHESTER, priority 2019, dated 2025) can be followed below.

Several values for one entry are separate records, joined by “and”; a condition that tells them apart may be missing. Equal entries are not always repeated.

What all share (format): cell-based
The subject of experiment [1] is ECC-1 cells. As to the kind of experiment: BrdU cell proliferation assay. The following applies: ECC-1, 48 hours. Here is the method: (§1) Cell lines, Culture, and Reagents. Cells were maintained in either DMEM (SKOV-3, KLE, OVCAR-3, OVCAR8-C5 and IGROV-1) or RPMI-1640 (ECC-1 and HCH-1), supplemented with 10% fetal calf serum (or 20% for OVCAR-3), penicillin (100 units/mL), and streptomycin (100 μg/mL) at 37° C. with 5% CO2 in a humidified incubator. Antibodies were purchased from Abcam (septin-2; ab179436) and Cell Signaling Technology; ERK (9102), p-ERK (4370), -actin (3700), u-Tubulin (2144), EGFR (4267) and HER2 (4290). FCF was purchased from Abcam. All other chemicals were from Sigma Aldrich. Synthesis of Derivaties. […] The reaction was monitored using thin-layer chromatography plates with DCM-MeOH or pure ethyl acetate as eluent. Spots were monitored in a UV chamber. The reaction mixture, upon completion of the reaction, was poured into wet ice mixture and triturated, then the separated solid was filtered by vacuum. The product was washed with hexane, followed by diethyl ether, and was dried under vacuum. The compounds were characterized by spectrophotometric techniques. Quantitative Real-Time PCR. The indicated cell lines were transfected with siRNA targeting septin-2 or non-targeting control siRNA (Santa Cruz Biotechnology: sc-37007 or sc-40936) using Lipofectamine 3000 (Invitrogen). […] Quantitative real-time PCR was conducted using QuantStudio 12 K Flex Real-Time PCR System (ABI) and the Taqman Gene Expression Assay (ABI) consisting of the FAM-labeled probes as follows: SEPT2 (Hs01565417_ml); WFDC2 (Hs00899484_ml); TBP (Hs00427620_ml) or B2M (Hs00187842_ml), which was used as reference for normalization. […] Cell viability, proliferation, and cellular apoptosis were measured using the MTS (Promega), BrdU cell proliferation (Cell Signaling Technology), and Caspase-Glo 3/7 apoptosis detection (Promega) assays, following the respective manufacturer's recommendations with suitable modification. […] Survival curves between septin high and low population and their statistical significance were analyzed using GraphPad Prism software (Mantel-Cox test). […]

In experiment [2] the test system is ECC-1 cells. As to the kind of experiment: Caspase-3/7 activity apoptosis assay. The following applies: ECC-1, 33 μM, 48 hours. Here is the method:
Cell lines, Culture, and Reagents. Cells were maintained in either DMEM (SKOV-3, KLE, OVCAR-3, OVCAR8-C5 and IGROV-1) or RPMI-1640 (ECC-1 and HCH-1), supplemented with 10% fetal calf serum (or 20% for OVCAR-3), penicillin (100 units/mL), and streptomycin (100 μg/mL) at 37° C. with 5% CO2 in a humidified incubator. Antibodies were purchased from Abcam (septin-2; ab179436) and Cell Signaling Technology; ERK (9102), p-ERK (4370), -actin (3700), u-Tubulin (2144), EGFR (4267) and HER2 (4290). FCF was purchased from Abcam. All other chemicals were from Sigma Aldrich. Synthesis of Derivaties. […] The reaction was monitored using thin-layer chromatography plates with DCM-MeOH or pure ethyl acetate as eluent. Spots were monitored in a UV chamber. […] Quantitative Real-Time PCR. […] Quantitative real-time PCR was conducted using QuantStudio 12 K Flex Real-Time PCR System (ABI) and the Taqman Gene Expression Assay (ABI) consisting of the FAM-labeled probes as follows: SEPT2 (Hs01565417_ml); WFDC2 (Hs00899484_ml); TBP (Hs00427620_ml) or B2M (Hs00187842_ml), which was used as reference for normalization. […] Cell viability, proliferation, and cellular apoptosis were measured using the MTS (Promega), BrdU cell proliferation (Cell Signaling Technology), and Caspase-Glo 3/7 apoptosis detection (Promega) assays, following the respective manufacturer's recommendations with suitable modification. […]

A further experiment has as its system HER2. As to the kind of experiment: Western blot of HER2 expression in ECC-1 and HCH-1 cells. The following applies: UR214-7 33 μM, UR214-9 33 μM, FCF 300 μM, 24 hours. The procedure:
as §1
A general note: Immunoblotting shows a protein as a band on a membrane.

Experiment [3] has as its system ECC-1 cells. As to the kind of experiment: MTS cell viability, ECC-1. To be noted: ECC-1, 48 hours. Here is the method: as §1
In experiment [4] the test system is endometrial (ECC-1 and KLE) and ovarian (HCH-1, OVCAR-3, and SKOV-3) cancer cell lines. Description: MTS cell viability, gynecologic cancer cell line panel. Here is the method:
Cell lines, Culture, and Reagents. Cells were maintained in either DMEM (SKOV-3, KLE, OVCAR-3, OVCAR8-C5 and IGROV-1) or RPMI-1640 (ECC-1 and HCH-1), supplemented with 10% fetal calf serum (or 20% for OVCAR-3), penicillin (100 units/mL), and streptomycin (100 μg/mL) at 37° C. with 5% CO2 in a humidified incubator. Antibodies were purchased from Abcam (septin-2; ab179436) and Cell Signaling Technology; ERK (9102), p-ERK (4370), -actin (3700), u-Tubulin (2144), EGFR (4267) and HER2 (4290). FCF was purchased from Abcam. All other chemicals were from Sigma Aldrich. Synthesis of Derivaties. […] The reaction was monitored using thin-layer chromatography plates with DCM-MeOH or pure ethyl acetate as eluent. Spots were monitored in a UV chamber. The reaction mixture, upon completion of the reaction, was poured into wet ice mixture and triturated, then the separated solid was filtered by vacuum. The product was washed with hexane, followed by diethyl ether, and was dried under vacuum. The compounds were characterized by spectrophotometric techniques. Quantitative Real-Time PCR. The indicated cell lines were transfected with siRNA targeting septin-2 or non-targeting control siRNA (Santa Cruz Biotechnology: sc-37007 or sc-40936) using Lipofectamine 3000 (Invitrogen). Tri reagent and Direct-zol kit (Zymo Research) were used to lyse and isolate total RNA. Reverse transcription was performed using iScript cDNA synthesis kit (BioRad), both following the manufacturer's recommendations. Quantitative real-time PCR was conducted using QuantStudio 12 K Flex Real-Time PCR System (ABI) and the Taqman Gene Expression Assay (ABI) consisting of the FAM-labeled probes as follows: SEPT2 (Hs01565417_ml); WFDC2 (Hs00899484_ml); TBP (Hs00427620_ml) or B2M (Hs00187842_ml), which was used as reference for normalization. Cell Viability, Proliferation and Apoptosis Assay. Cell viability, proliferation, and cellular apoptosis were measured using the MTS (Promega), BrdU cell proliferation (Cell Signaling Technology), and Caspase-Glo 3/7 apoptosis detection (Promega) assays, following the respective manufacturer's recommendations with suitable modification. Enzyme-Linked Immunosorbent Assay (ELISA) and Immunoblotting. Cells were maintained overnight in the culture media described above. […] Following the treatment, cell lysates and supernatants were collected and subjected to HE4 assay (Human HE4 Quantikine ELISA Kit, R&D Systems). The amount of HE4 in supernatant was normalized to the protein concentration of matching cell lysate. The levels of HER2 were determined by Human Total ErbB2/Her2 DuoSet IC ELISA (R&D systems. Wester blot analysis was conducted using the protocol previously published (see Kim, K. K. et al. Tetrathiomolybdate inhibits mitochondrial complex IV and mediates degradation of hypoxia-inducible factor-1alpha in cancer cells. Sci. Rep. 5, 14296, 2015). Data Acquisition and Statistical Analysis. Gene expression profiling of septins, comparing microdissected normal ovarian stroma (N=8) against that of tumor stroma samples (N=31) from high grade serous ovarian cancer patients, was obtained from Mixed Ovarian Cancer (CAFs)-Wong-77-u133p2 data-set through ‘R2: Genomics Analysis and Visualization Platform (http://r2/am/n1). Mean values with SD were plotted and compared using Student t-test (two tail, unpaired heteroscedastic t-test, significant difference when p<0.01). The prognostic assessment of septin-2 amongst different cancers or septins in endometrial cancer was conducted using TCGA data acquired through Human Protein Atlas (http://www.proteinatlas.org) (see Uhlen, M. et al. Towards a knowledge-based Human Protein Atlas. Nat. Biotechnol. 28, 1248-1250, 2010). Survival curves between septin high and low population and their statistical significance were analyzed using GraphPad Prism software (Mantel-Cox test). […] Structural Modification of FCF. […]

On to `O=C(Nc1cc(Cl)nc(Cl)c1)Nc1cccc(SC(F)(F)F)c1F` [UR214-9], for which, in the experiment with ECC-1 cells [1] (BrdU (FIG. 2B)), the concentration inhibiting proliferation is ~4 µM and 4 to 5 µM. Moreover, the “apoptosis (caspase-3/7 activity)” value in the experiment on ECC-1 cells [2] is on record as “much more effective”. Also, in the experiment with HER2, the HER2 expression entry is “inhibition of HER2 expression”. For the same molecule, the concentration inhibiting viability result with ECC-1 cells [3] (MTS (FIG. 2B)) is listed as “around 33 μM”. Also, in experiment [4] (72 hours, MTS), the “viability of tumor cells, dose-dependent (FIG. 2E)” value was “potent activity across most cell lines”. Also, the “proliferation in multiple endometrial and ovarian cancer cells” value in experiment [4] (at considerably lower doses than FCF) is “blocked proliferation”.

Turning to `O=C(Nc1ccccc1)Nc1ccnc(Cl)c1` [FCF, N-(2-chloro-4-pyridyl)-N′-phenylurea, reference compound], in the experiment with ECC-1 cells [1] (BrdU, lower dose ranges), the proliferation result was “lacked activity”. In addition, the HER2 expression entry in the experiment on HER2 is on record as “inhibition of HER2 expression”. For the same molecule, in the experiment on ECC-1 cells [3] (MTS, lower dose ranges), the viability result is reported as “lacked activity”. The cell viability entry in experiment [4] (FCF 0, 100, 300 μM, 24 or 72 hours, time- and dose-dependent (FIG. 1)) was “reduced the viability”.
